Target: T1, Human TRPC6 (Homo sapiens, UniProt Q9Y210)
T1 construct: expressed in transfected cells
T1 sequence (Q9Y210 1-931): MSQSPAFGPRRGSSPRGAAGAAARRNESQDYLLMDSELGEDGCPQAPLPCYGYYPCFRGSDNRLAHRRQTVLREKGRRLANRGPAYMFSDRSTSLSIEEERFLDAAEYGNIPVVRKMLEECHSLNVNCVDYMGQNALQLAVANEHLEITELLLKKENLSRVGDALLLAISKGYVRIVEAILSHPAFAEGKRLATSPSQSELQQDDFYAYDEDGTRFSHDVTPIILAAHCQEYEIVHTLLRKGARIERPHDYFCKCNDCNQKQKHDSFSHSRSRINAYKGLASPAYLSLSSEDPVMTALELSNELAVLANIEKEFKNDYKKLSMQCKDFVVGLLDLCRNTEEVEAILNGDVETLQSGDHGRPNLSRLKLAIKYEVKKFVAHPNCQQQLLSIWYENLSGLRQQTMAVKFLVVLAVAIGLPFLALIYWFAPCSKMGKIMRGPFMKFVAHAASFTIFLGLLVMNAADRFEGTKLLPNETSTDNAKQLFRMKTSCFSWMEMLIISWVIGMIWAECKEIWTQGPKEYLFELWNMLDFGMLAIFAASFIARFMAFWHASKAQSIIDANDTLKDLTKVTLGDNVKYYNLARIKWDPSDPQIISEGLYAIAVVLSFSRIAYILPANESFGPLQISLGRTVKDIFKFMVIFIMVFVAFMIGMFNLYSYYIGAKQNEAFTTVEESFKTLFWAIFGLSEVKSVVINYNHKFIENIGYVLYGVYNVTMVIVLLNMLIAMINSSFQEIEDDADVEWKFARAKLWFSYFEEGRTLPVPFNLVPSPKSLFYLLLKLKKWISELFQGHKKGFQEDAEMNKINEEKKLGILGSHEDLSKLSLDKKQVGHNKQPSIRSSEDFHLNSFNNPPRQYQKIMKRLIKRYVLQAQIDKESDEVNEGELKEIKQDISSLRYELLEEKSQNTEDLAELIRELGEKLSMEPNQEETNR
Experiment: Evaluation of TRPC6 channel inhibitory activity (1), FLIPR Calcium 5 Assay Kit, OAG stimulation (Compound Nos. 1-1293)
Format: cell-based
Details: Human TRPC6 stably-expressing cells, OAG 30 μM, FLIPR Calcium 5 Assay Kit; read-out: Inhibitory activity (pIC50 class) (converted)
Procedure, shortened: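 The FLIPR signal is maximum fluorescence after 30 μM OAG minus minimum before compound, measured in a human TRPC6 stable line loaded with Calcium 5 dye. Compounds were preincubated 20 min. pIC50 came from four-parameter logistic fitting of inhibition rates and is given as symbol ranges.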

| SMILES | IC50 |
| --- | --- |
| N#Cc1ccc(-n2cc(C(O)CN)cn2)c(Oc2cc(N3CCOCC3)nc(C(F)(F)F)n2)c1 (stereo not shown) [Compound 155, 4-[4-(2-amino-1-hydroxyethyl)pyrazol-1-yl]-3-[6-morpholin-4-yl-2-(trifluoromethyl)pyrimidin-4-yl]oxybenzonitrile] | 10 to 1000 nM |
| Cn1nc(C2CC2)cc1Oc1cc(C#N)ccc1-c1nnc2n1CCNC2 [compound 763, 3-(5-cyclopropyl-2-methylpyrazol-3-yl)oxy-4(5,6,7,8-tetrahydro-[1,2,4]triazolo[4,3-a]pyrazin-3-yl)benzonitrile] | > 1000 nM |
| Cn1nc(-c2ccccc2)cc1Oc1cc(C#N)ccc1-c1ncc(C(O)CN)cn1 (stereo not shown) [Compound 248, 4-[5-(2-amino-1-hydroxyethyl)pyrimidin-2-yl]-3-(2-methyl-5-phenylpyrazol-3-yl)oxybenzonitrile] | < 10 nM |
| COc1cc(-c2ccc(C#N)cc2Oc2cc(N3CCOCC3)nc(C)n2)ccc1C(O)CN (stereo not shown) [Compound 156, 4-[4-(2-amino-1-hydroxyethyl)-3-methoxyphenyl]-3-(2-methyl-6-morpholin-4-ylpyrimidin-4-yl)oxybenzonitrile] | 10 to 1000 nM |
| Cc1ccccc1-c1cc(Oc2cc(C#N)ccc2-c2ccc([C@@H](O)CN)cn2)n(C)n1 [compound 378, 4-[5-[(1R)-2-amino-1-hydroxyethyl]pyridin-2-yl]-3-[2-methyl-5-(2-methylphenyl)pyrazol-3-yl]oxybenzonitrile] | < 10 nM |
| Cn1nc(-c2ncccn2)cc1Oc1cc(C#N)ccc1-c1ccc(CCN)cn1 [compound 512, 4-[5-(2-aminoethyl)pyridin-2-yl]-3-(2-methyl-5-pyrimidin-2-ylpyrazol-3-yl)oxybenzonitrile] | 10 to 1000 nM |
| N#Cc1ccc(-c2ccc(CCN)cc2)c(Cn2cnc(-c3ccccc3)c2)c1 [compound 1111, 4-[4-(2-aminoethyl)phenyl]-3-[(4-phenylimidazol-1-yl)methyl]benzonitrile] | 10 to 1000 nM |
| Cc1nn(CC(F)F)cc1Oc1cc(C#N)ccc1-c1ncc(CCN)cn1 [compound 924, 4-[5-(2-aminoethyl)pyrimidin-2-yl]-3-[1-(2,2-difluoroethyl)-3-methylpyrazol-4-yl]oxybenzonitrile] | 10 to 1000 nM |
| Cc1cc(Oc2cc(C#N)ccc2-c2ccc([C@H](O)CN)cn2)cc(N2C[C@@H](C)O[C@@H](C)C2)n1 [compound 505, 4-[5-[(1S)-2-amino-1-hydroxyethyl]pyridin-2-yl]-3-[2-[(2S,6R)-2,6-dimethylmorpholin-4-yl]-6-methylpyridin-4-yl]oxybenzonitrile] | < 10 nM |
| Cc1nc(OCC2CCCC2)cc(Oc2cc(C#N)ccc2-c2ccc(CCN)cc2)n1 [Compound 44, 4-[4-(2-aminoethyl)phenyl]-3-[6-(cyclopentylmethoxy)-2-methylpyrimidin-4-yl]oxybenzonitrile] | > 1000 nM |
| Cn1nc(C2CC2)cc1Oc1cc(C#N)ccc1-c1nc(C(O)CN)cs1 (stereo not shown) [Compound 216, 4-[4-(2-amino-1-hydroxyethyl)-1,3-thiazol-2-yl]-3-(5-cyclopropyl-2-methylpyrazol-3-yl)oxybenzonitrile] | 10 to 1000 nM |
| CN(CC(F)F)c1cc(Oc2cc(C#N)ccc2-c2ncc(CCN)cn2)n(C)n1 [compound 786, 4-[5-(2-aminoethyl)pyrimidin-2-yl]-3-[5-[2,2-difluoroethyl(methyl)amino]-2-methylpyrazol-3-yl]oxybenzonitrile] | < 10 nM |
| CCc1cc(C(=O)c2cc(C#N)ccc2-c2ncc(CCN)cn2)n(C)n1 [compound 1025, 4-[5-(2-aminoethyl)pyrimidin-2-yl]-3-(5-ethyl-2-methylpyrazole-3-carbonyl)benzonitrile] | < 10 nM |
| Cn1nc(C2CC2)cc1Oc1cc(C#N)ccc1-c1ncc([C@H](O)CN)cn1 [compound 373, 4-[5-[(1S)-2-amino-1-hydroxyethyl]pyrimidin-2-yl]-3-(5 cyclopropyl-2-methylpyrazol-3-yl)oxybenzonitrile] | < 10 nM |
| CN(CC(F)F)c1cc(Oc2cc(F)ccc2-c2ncc(CN)cn2)n(C)n1 [compound 993, 5-[2-[5-(aminomethyl)pyrimidin-2-yl]-5-fluorophenoxy]-N-(2,2-difluoroethyl)-N,1-dimethylpyrazole-3-amine] | 10 to 1000 nM |

Results, then the molecule that gave them:

| IC50 | SMILES |
| --- | --- |
| < 10 nM | N#Cc1ccc(-c2ccc(CN)cn2)c(Oc2cnnc(N3CCCCC3)c2)c1 [compound 697, 4-[5-(aminomethyl)pyridin-2-yl]-3-(6-piperidin-1-ylpyridazin-4-yl)oxybenzonitrile] |
| > 1000 nM | N#Cc1ccc(-c2ncc(CN)cn2)c(Oc2nnc(-c3ccccn3)s2)c1 [compound 699, 4-[5-(aminomethyl)pyrimidin-2-yl]-3-[(5-pyridin-2-yl-1,3,4-thiadiazol-2-yl)oxy]benzonitrile] |
| > 1000 nM | Cn1nc(C2CC2)cc1Oc1cc(C#N)ccc1-c1ccc(C(N)c2nnn[nH]2)cn1 (stereo not shown) [compound 511, 4-[5-[amino(1H-tetrazol-5-yl)methyl]pyridin-2-yl]-3-(5-cyclopropyl-2-methylpyrazol-3-yl)oxybenzonitrile] |
| > 1000 nM | Cc1nc(CNC(C)C)cn1Cc1cc(C#N)ccc1-c1ncc(CCN)cn1 [compound 1181, 4-[5-(2-aminoethyl)pyrimidin-2-yl]-3-[[2-methyl-4-[(propan-2-ylamino)methyl]imidazol-1-yl]methyl]benzonitrile] |
| > 1000 nM | N#Cc1ccc(-c2ncc(CN)cn2)c(Oc2cnnc(-n3ccccc3=O)c2)c1 [compound 820, 4-[5-(aminomethyl)pyrimidin-2-yl]-3-[6-(2-oxopyridin-1-yl)pyridazin-4-yl]oxybenzonitrile] |
| < 10 nM | Cn1nc(C2CCCC2)cc1Oc1cc(C#N)ccc1-c1ccc([C@H](O)CN)cn1 [compound 392, 4-[5-[(1S)-2-amino-1-hydroxyethyl]pyridin-2-yl]-3-(5-cyclopentyl-2-methylpyrazol-3-yl)oxybenzonitrile] |
| < 10 nM | COC(CN)c1ccc(-c2ccc(C#N)cc2Oc2cc(N3CCOCC3)nc(C)n2)cc1 (stereo not shown) [Compound 11, 4-[4-(2-Amino-1-methoxyethyl)phenyl]-3-(2-methyl-6-morpholin-4-ylpyrimidin-4-yl)oxybenzonitrile] |
| < 10 nM | Cn1nc(C2CCCC2)cc1Oc1cc(C#N)ccc1-c1ncc(CCN)cn1 [compound 393, 4-[5-(2-aminoethyl)pyrimidin-2-yl]-3-(5-cyclopentyl-2-methylpyrazol-3-yl)oxybenzonitrile] |
| < 10 nM | Cn1nc(C(C)(C)C)cc1C(O)c1cc(C#N)ccc1-c1ncc(CN)cn1 (stereo not shown) [compound 1234, 4-[5-(aminomethyl)pyrimidin-2-yl]-3-[(5-tert-butyl-2-methylpyrazol-3-yl)-hydroxymethyl]benzonitrile] |
| 10 to 1000 nM | Cc1nc(Oc2cc(C#N)ccc2-c2ncc(C(O)CN)s2)cc(-c2ccccc2)n1 (stereo not shown) [Compound 224, 4-[5-(2-amino-1-hydroxyethyl)-1,3-thiazol-2-yl]-3-(2-methyl-6-phenylpyrimidin-4-yl)oxybenzonitrile] |
| < 10 nM | Cc1nc(Oc2cc(C#N)ccc2-c2ncc([C@H](O)CN)cn2)cc(N2CCCCC2)n1 [compound 510, 4-[5-[(1S)-2-amino-1-hydroxyethyl]pyrimidin-2-yl]-3-(2-methyl-6-piperidin-1-ylpyrimidin-4-yl)oxybenzonitrile] |
| 10 to 1000 nM | Cc1cc(Cc2cc(C#N)ccc2-c2ncc(CCN)cn2)cc(N2CCOCC2)n1 [compound 1204, 4-[5-(2-aminoethyl)pyrimidin-2-yl]-3-[(2-methyl-6-morpholin-4-ylpyridin-4-yl)methyl]benzonitrile] |
| < 10 nM | Cc1nc(Oc2cc(C#N)ccc2-c2ccc(CCN)cc2)cc(-c2cccs2)n1 [Compound 33, 4-[4-(2-aminoethyl)phenyl]-3-(2-methyl-6-thiophen-2-ylpyrimidin-4-yl)oxybenzonitrile] |
| > 1000 nM | Cc1nn(C(C)C)c(C)c1Oc1cc(C#N)ccc1-c1ncc(CCN)cn1 [compound 942, 4-[5-(2-aminoethyl)pyrimidin-2-yl]-3-(3,5-dimethyl-1-propan-2-ylpyrazol-4-yl)oxybenzonitrile] |
| 10 to 1000 nM | N#Cc1ccc(-c2ncc(CN)cn2)c(C(=O)c2cnn(-c3nccs3)c2)c1 [compound 1050, 4-[5-(aminomethyl)pyrimidin-2-yl]-3-[1-(1,3-thiazol-2-yl)pyrazole-4-carbonyl]benzonitrile] |
| 10 to 1000 nM | Cn1nc(N2CCOCC2)cc1Oc1cc(F)ccc1-c1ncc(CN)cn1 [compound 974, [2-[4-fluoro-2-(2-methyl-5-morpholin-4-ylpyrazol-3-yl)oxyphenyl]pyrimidin-5-yl]methanamine] |
